Laboratory results: patent publication US9572787B2, “Inhibition of renal fibrosis” (Rhode Island Hospital, priority 2011, dated 2017)

Legend:
[1] = system: NRK-49F cells; test: TGF-β1-induced activation of renal interstitial fibroblasts (immunoblot); format: cell-based, rat; conditions: 2 ng/ml TGF-β1, 24 h
Protocol: (§1) Cell Culture and Treatments. NRK-49F cells were cultured in Dulbecco's modified eagle's medium (DMEM) (Sigma-Aldrich, St. Louis, Mo.) containing 5% fetal bovine serum (FBS), 0.5% penicillin and streptomycin in an atmosphere of 5% CO2 and 95% air at 37° C. […] For TGF-β1 treatment, NRK-49F were starved for 24 h by incubation with 0.5% FBS containing DMEM and then exposed to TGF-β1 (0.5-2 ng/ml) for 24 h.
(§2) Immunoblot Analysis. Immunoblot analysis of NRK-49F cells and tissue samples were conducted as described previously. The densitometry analysis of immunoblot results was conducted by using NIH Image software (National Institutes of Health, Bethesda, Md.).

[2] = system: NRK-49F cells; test: Serum (5% FBS)-stimulated activation and kinase phosphorylation in renal interstitial fibroblasts (immunoblot); format: cell-based, rat; conditions: 36 h, suramin 100 μM
Protocol: as §1, §2

[3] = system: NRK-49F cells; test: Cleaved PARP and cleaved caspase-3 (apoptosis hallmarks), immunoblot; format: cell-based, rat; conditions: 100 μM suramin, 36 h
Protocol: Cell Culture and Treatments. NRK-49F cells were cultured in Dulbecco's modified eagle's medium (DMEM) (Sigma-Aldrich, St. Louis, Mo.) containing 5% fetal bovine serum (FBS), 0.5% penicillin and streptomycin in an atmosphere of 5% CO2 and 95% air at 37° C. […] Immunoblot Analysis. Immunoblot analysis of NRK-49F cells and tissue samples were conducted as described previously. The densitometry analysis of immunoblot results was conducted by using NIH Image software (National Institutes of Health, Bethesda, Md.).

[4] = system: remnant kidney; test: Remnant kidney model (5/6 nephrectomy), suramin treatment; format: in vivo, rat
Description: The remnant kidney model was created in male Sprague-Dawley rats that weighed 180 to 200 g (Charles River Laboratories, Wilmington, Mass.). 5/6 of normal renal mass was surgically ablated according to our previous protocols. Briefly, 20 animals underwent subtotal nephrectomy involving right subcapsular nephrectomy and infarction of approximately two-thirds of the left kidney by ligation of the posterior and one or two anterior extrarenal branches of the renal artery. In addition, 12 rats underwent a sham operation (laparotomy and manipulation of the renal pedicles). On the second week after surgery, rats were randomly divided into suramin treatment and non-treatment groups. […] 24-hour urine samples were collected in metabolic cages at day 0 and weekly for the determination of urinary levels of protein. Blood was taken weekly for the measurement of serum creatinine. At 28 days after surgery, mean blood pressure was measured, and then all animals were sacrificed and kidneys were collected for further analysis. Assessment of Renal Function and Measurement of Blood Pressure. Urinary protein concentrations were determined by using the colorimetric Lowry assay. Serum creatinine was analyzed using a creatinine kit (Sigma). Mean blood pressure was determined via a catheter inserted into the femoral artery attached to the Transonic Systems pressure transducer (Transonic Systems Inc. Ithaca, N.Y.) in anesthetized rats at the end of experiment. Immunoblot Analysis. Immunoblot analysis of NRK-49F cells and tissue samples were conducted as described previously. The densitometry analysis of immunoblot results was conducted by using NIH Image software (National Institutes of Health, Bethesda, Md.). Immunofluorescent and Immunohistochemical Staining Immunofluorescent and immunohistochemical staining was performed according to the procedure described in our previous studies. For assessment of renal fibrosis, masson trichrome staining was performed according to the protocol provided by the manufacture (Sigma, St. Louis, Mo.). The collagen tissue area (blue color) was quantitatively measured using Image Pro-Plus software (Media-Cybernetics, Silver Spring, Md., USA) by drawing a line around the perimeter of positive staining area, and the average ratio to each microscopic field (400×) was calculated and graphed.

[5] = system: NRK-49F cells; test: Delayed suramin treatment of TGF-β1-pretreated renal interstitial fibroblasts; format: cell-based, rat; conditions: TGF-β1 pretreatment 24 and 48 h, then suramin 100 μM for additional 24 and 48 h with TGF-β1
Protocol: At 48 h after pretreatment with TGF-β1, expression of α-SMA and fibronectin was induced, which is similar to the in-vivo situation.

[6] = 10 mg/kg once per week for two weeks
[7] = 10 mg/kg once per week for two weeks, from week 2 after surgery

SMILES: Cc1ccc(C(=O)Nc2ccc(S(=O)(=O)O)c3cc(S(=O)(=O)O)cc(S(=O)(=O)O)c23)cc1NC(=O)c1cccc(NC(=O)Nc2cccc(C(=O)Nc3cc(C(=O)Nc4ccc(S(=O)(=O)O)c5cc(S(=O)(=O)O)cc(S(=O)(=O)O)c45)ccc3C)c2)c1 [Suramin]
- TGF-β1 induced phosphorylation of Smad2 [1]: abolished
- TGF-β1 induced phosphorylation of Smad3 [1]: abolished
- TGF-β1-induced fibronectin expression ([1]; in the presence of suramin): abolished
- TGF-β1-induced α-SMA expression ([1]; in the presence of suramin): suppressed to the basal level
- phosphorylation of EGFR [2]: complete inhibition
- phosphorylation of ERK1/2 [2]: complete inhibition
- phosphorylation of PDGFR [2]: complete inhibition
- phosphorylation of STAT3 [2]: complete inhibition
- serum-induced fibronectin expression [2]: complete blockade
- serum-induced α-SMA expression [2]: complete blockade
- cleavage of caspase-3 [3]: did not induce cleavage
- cleavage of poly (ADP-ribose) polymerase (PARP) [3]: did not induce cleavage
- de novo expression of fibronectin in the remnant kidney [4, 6]: abolished
- de novo expression of α-SMA in the remnant kidney [4, 6]: abolished
- increased expression of type 1 collagen in the remnant kidney [4, 6]: abolished
- 24-hour proteinuria [4, 7]: significantly reduced
- serum creatinine [4, 7]: significantly reduced
- hypertension (mean blood pressure) ([4]; 10 mg/kg once per week for two weeks, day 28): not significantly affected
- kidney histology (glomerular and tubulointerstitial damage) ([4]; 10 mg/kg once per week for two weeks, week 4): preserved kidney architecture and prevented the glomerular and tubulointerstitial damage
- pathological changes in the kidney ([4]; suramin alone-treated (sham-operated) animals): no obvious pathological changes
- TGF-β1-induced fibronectin expression [5]: suppressed further increase
- TGF-β1-induced α-SMA expression [5]: suppressed further increase
